Measurements published in US20100267561A1, “HERBICIDAL PYRIDAZINONE DERIVATIVES” (priority 2007, published 2010).

Legend:
Format in all cases: in vivo
rice (Oryza sativa) = test: Test B flooded paddy test plant response; settings: Flood (flooded paddy test), scale 0 to 100, 0 no effect, 100 complete control
How it was run: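 Rice, umbrella sedge, ducksalad and barnyardgrass at 2-leaf stage; pots flooded to 3 cm, compounds applied into paddy water, depth held throughout. Greenhouse 13 to 15 days, then visual rating vs untreated controls on 0–100 scale (0 no effect, 100 complete control); dash means no test result.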

[1] = test system: morningglory (Ipomoea coccinea); test: Test B pre-/postemergence plant response
How it was run: (§1)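 Seeds were sown and sprayed preemergence, while plants at 2 to 18 cm (1- to 4-leaf stage) got postemergence sprays. Compounds were formulated in a non-phytotoxic solvent mixture with surfactant. After 13 to 15 days in a greenhouse, injury was rated visually against untreated controls, 0 (no effect) to 100 (complete control).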

[2] = test system: large crabgrass (Digitaria sanguinalis); test: Test B pre-/postemergence plant response
How it was run: as §1

kochia (Kochia scoparia) = test: Test B pre-/postemergence plant response
How it was run: as §1

[3] = test system: pigweed (Amaranthus retroflexus); test: Test B pre-/postemergence plant response
How it was run: as §1

[4] = test system: goosegrass (Eleusine indica); test: Test B pre-/postemergence plant response
How it was run: as §1

[5] = test system: giant foxtail (Setaria faberii); test: Test B pre-/postemergence plant response
How it was run: as §1

[6] = test system: bermudagrass (Cynodon dactylon); test: Test B pre-/postemergence plant response; settings: for Bermudagrass plant response rating: 8 g ai/ha
How it was run: as §1

[7] = test system: Italian ryegrass (Lolium multiflorum); test: Test B pre-/postemergence plant response
How it was run: as §1

soybean (Glycine max) = test: Test B pre-/postemergence plant response
How it was run: as §1

[8] = test system: velvetleaf (Abutilon theophrasti); test: Test B pre-/postemergence plant response
How it was run: as §1

[9] = test system: lambsquarters (Chenopodium album); test: Test B pre-/postemergence plant response
How it was run: as §1

[10] = test system: johnsongrass (Sorghum halepense); test: Test B pre-/postemergence plant response
How it was run: as §1

[11] = test system: catchweed bedstraw (Galium aparine); test: Test B pre-/postemergence plant response; settings: Preemergence, scale 0 to 100
How it was run: as §1

[12] = 8 g ai/ha, postemergence, 0-100 scale
[13] = Postemergence, 16 g ai/ha, scale 0 to 100
[14] = Postemergence, 31 g ai/ha, scale 0 to 100
[15] = Postemergence, 62 g ai/ha, scale 0 to 100, 0 no effect, 100 complete control
[16] = Preemergence, 31 g ai/ha, scale 0 to 100 (0 no effect, 100 complete control)
[17] = Preemergence, 62 g ai/ha, scale 0 to 100
[18] = Preemergence, 8 g ai/ha, scale 0 to 100
[19] = Preemergence, 16 g ai/ha, scale 0 to 100
[20] = Preemergence, 31 g ai/ha, 0 to 100 scale, 0 no effect, 100 complete control

Cc1cc(-c2ccc(Cl)cc2)nn1-c1c(OC(=O)Oc2ccccc2)cnn(C)c1=O [Compound 54]
Plant response rating, Rice (rice (Oryza sativa); 62 g ai/ha): 15
Plant response rating, Rice (rice (Oryza sativa); 250 g ai/ha): 80
Morningglory plant response rating [1, 12]: 0
Plant response rating, Morningglory [1, 13]: 0
Plant response rating, Morningglory [1, 14]: 0
Plant response rating, Morningglory [1, 15]: 0
Plant response rating, Morningglory [1, 16]: 0
Plant response rating, Morningglory [1, 17]: 0
Morningglory plant response rating [1, 18]: 0
Morningglory plant response rating [1, 19]: 0
Crabgrass, Large plant response rating [2, 12]: 65
Plant response rating, Crabgrass, Large [2, 13]: 85
Plant response rating, Crabgrass, Large [2, 14]: 98
Plant response rating, Crabgrass, Large [2, 15]: 98
Plant response rating, Crabgrass, Large [2, 20]: 0
Plant response rating, Crabgrass, Large [2, 17]: 0
Crabgrass, Large plant response rating [2, 18]: 0
Crabgrass, Large plant response rating [2, 19]: 0
Kochia plant response rating (kochia (Kochia scoparia); [12]): 0
Plant response rating, Kochia (kochia (Kochia scoparia); [13]): 0
Plant response rating, Kochia (kochia (Kochia scoparia); [14]): 0
Plant response rating, Kochia (kochia (Kochia scoparia); [15]): 0
Plant response rating, Kochia (kochia (Kochia scoparia); [20]): 0
Pigweed plant response rating [3, 12]: 0
Plant response rating, Pigweed [3, 13]: 0
Plant response rating, Pigweed [3, 14]: 0
Plant response rating, Pigweed [3, 15]: 0
Plant response rating, Pigweed [3, 16]: 0
Plant response rating, Pigweed [3, 17]: 0
Pigweed plant response rating [3, 18]: 0
Pigweed plant response rating [3, 19]: 0
Goosegrass plant response rating [4, 12]: 55
Plant response rating, Goosegrass [4, 13]: 65
Plant response rating, Goosegrass [4, 14]: 70
Plant response rating, Goosegrass [4, 15]: 98
Plant response rating, Goosegrass [4, 20]: 0
Plant response rating, Goosegrass [4, 17]: 0
Goosegrass plant response rating [4, 18]: 0
Goosegrass plant response rating [4, 19]: 0
Foxtail, Giant plant response rating [5, 12]: 85
Plant response rating, Foxtail, Giant [5, 13]: 98
Plant response rating, Foxtail, Giant [5, 14]: 100
Plant response rating, Foxtail, Giant [5, 15]: 100
Plant response rating, Foxtail, Giant [5, 20]: 20
Plant response rating, Foxtail, Giant [5, 17]: 55
Foxtail, Giant plant response rating [5, 18]: 0
Foxtail, Giant plant response rating [5, 19]: 0
Bermudagrass plant response rating ([6]; postemergence, 0-100 scale): 100
Plant response rating, Bermudagrass [6, 13]: 100
Plant response rating, Bermudagrass [6, 14]: 100
Plant response rating, Bermudagrass [6, 15]: 100
Bermudagrass plant response rating ([6]; Preemergence, scale 0 to 100 (0 no effect, 100 complete control)): 0
Plant response rating, Bermudagrass ([6]; Preemergence, 16 g ai/ha, scale 0 to 100 (0 no effect, 100 complete control)): 0
Plant response rating, Bermudagrass [6, 20]: 0
Plant response rating, Bermudagrass [6, 17]: 0
Ryegrass, Italian plant response rating [7, 12]: 75
Plant response rating, Ryegrass, Italian [7, 13]: 95
Plant response rating, Ryegrass, Italian [7, 14]: 95
Plant response rating, Ryegrass, Italian [7, 15]: 100
Plant response rating, Ryegrass, Italian [7, 16]: 90
Plant response rating, Ryegrass, Italian [7, 17]: 100
Ryegrass, Italian plant response rating [7, 18]: 20
Ryegrass, Italian plant response rating [7, 19]: 90
Soybean plant response rating (soybean (Glycine max); [12]): 0
Plant response rating, Soybean (soybean (Glycine max); [13]): 0
Plant response rating, Soybean (soybean (Glycine max); [14]): 0
Plant response rating, Soybean (soybean (Glycine max); [15]): 0
Plant response rating, Soybean (soybean (Glycine max); [16]): 0
Plant response rating, Soybean (soybean (Glycine max); [17]): 0
Soybean plant response rating (soybean (Glycine max); [18]): 0
Soybean plant response rating (soybean (Glycine max); [19]): 0
Velvetleaf plant response rating [8, 12]: 0
Plant response rating, Velvetleaf [8, 13]: 0
Plant response rating, Velvetleaf [8, 14]: 0
Plant response rating, Velvetleaf [8, 15]: 0
Plant response rating, Velvetleaf [8, 16]: 0
Plant response rating, Velvetleaf ([8]; Preemergence, 62 g ai/ha, 0 to 100 scale, 0 no effect, 100 complete control): 0
Velvetleaf plant response rating [8, 18]: 0
Velvetleaf plant response rating [8, 19]: 0
Lambsquarters plant response rating [9, 12]: 0
Plant response rating, Lambsquarters [9, 13]: 0
Plant response rating, Lambsquarters [9, 14]: 0
Plant response rating, Lambsquarters [9, 15]: 0
Plant response rating, Lambsquarters [9, 20]: 0
Plant response rating, Lambsquarters [9, 17]: 0
Lambsquarters plant response rating [9, 18]: 0
Lambsquarters plant response rating [9, 19]: 0
Johnsongrass plant response rating [10, 12]: 0
Plant response rating, Johnsongrass [10, 13]: 25
Plant response rating, Johnsongrass [10, 14]: 80
Plant response rating, Johnsongrass [10, 15]: 100
Plant response rating, Johnsongrass [10, 20]: 75
Plant response rating, Johnsongrass [10, 17]: 90
Johnsongrass plant response rating [10, 18]: 0
Johnsongrass plant response rating [10, 19]: 40
Plant response rating, Galium ([11]; 62 g ai/ha): 0
Galium plant response rating ([11]; 8 g ai/ha): 0
Galium plant response rating ([11]; 16 g ai/ha): 0
